Measurements from publication PMC6562844, “A Basic Study of Photodynamic Therapy with Glucose-Conjugated Chlorin e6 Using Mammary Carcinoma Xenografts” (Cancers, 2019).
Where a SMILES comes first, the peptide text is derived from it. The star is where a group is joined. Cbz = O=C(OCc1ccccc1)*; CH2F = FC*

What was measured:
[1] = design: method as in earlier work; settings: cited from earlier work
[2] = system: SNP cells; experiment: Effect of a pan-caspase inhibitor on G-Ce6-PDT-induced cell death; format: cell-based, canine; settings: 10 μM Z-VAD-FMK; 8 μg/mL G-Ce6; 5 J/cm^2
Method: SNP cells were incubated with 8 μg/mL G-Ce6 for 24 h in the presence (10 μM) or absence of Z-VAD-FMK (Medical & Biological Laboratories Co. Ltd., Aichi, Japan), which is a pan-caspase inhibitor. After washing with fresh media, the cells were irradiated with 650-nm laser light (10 mW/cm^2, 5 J/cm^2) emitted by a semiconductor laser, using an optical fiber with a microlens delivery attachment. Apoptosis was assessed at 4 h after laser irradiation using the Muse Annexin V and Dead Cell Assay kit.

[3] = system: SNP cells; experiment: Photodynamic cytotoxicity in SNP cells (Cell Counting Kit-8); format: cell-based, canine; settings: 24 h incubation, 650-nm laser 10 mW/cm^2, viability 24 h after PDT
Method: We seeded 1 × 10^4 SNP cells into each well of 96-well plates (Corning Inc., New York, NY, USA) followed by overnight incubation. Cells were then incubated with various concentrations of G-Ce6 for 24 h at 37 °C. After washing with fresh media, the cells were irradiated with 650-nm light emitted by a semiconductor laser (Osada Electric Co., Ltd., Tokyo, Japan), using an optical fiber with a micro-lens delivery attachment (Pioneer Optics, Inc., Windsor Lock, CT, USA). PDT was performed at 10 mW/cm^2 in cells exposed to six concentrations of NPe6 and G-Ce6 (0, 0.064, 0.32, 1.6, 8.0, or 40.0 μg/mL) using four light doses (0, 1, 5, or 15 J/cm^2). The cells were then incubated for 24 h in the dark prior to examining cell viability using the Cell Counting Kit-8 (Dojindo, Kumamoto, Japan), according to the manufacturer’s instructions.

porfimer sodium
AUC [1]: 1670.2 ± 71.6 µg·h/mL
T1/2 [1]: 44.22 ± 8.10 h

COC(=O)C[C@H](NC(=O)[C@H](C)NC(=O)[C@@H](NC(=O)OCc1ccccc1)C(C)C)C(=O)CF [Z-VAD-FMK, reference compound] (Cbz-Val-Ala-Asp(OMe)-CH2F)
Influence on number of Annexin V-positive cells and cytotoxicity induced by G-Ce6-mediated PDT [2]: did not influence

C=Cc1c(C)c2cc3nc(c(CC(=O)N[C@@H](CC(=O)[O-])C(=O)[O-])c4[nH]c(cc5nc(cc1[nH]2)C(C)=C5CC)c(C)c4C(=O)[O-])[C@@H](CCC(=O)[O-])[C@@H]3C.[Na+].[Na+].[Na+].[Na+] [NPe6, mono-L-aspartyl chlorin e6, reference compound]
IC50 against SNP cells ([3]; light dose 1 J/cm^2): 75.2 µg/mL
IC50 against SNP cells ([3]; light dose 5 J/cm^2): 30.4 µg/mL
IC50 against SNP cells ([3]; light dose 15 J/cm^2): 30.6 µg/mL
